# Laboratory results: PubChem BioAssay AID256 (DTP/NCI, 2004)
# Where “and” joins values, the source holds several entries; their conditions need not be identical. Equal entries are not always repeated. Toxic doses and inconclusive results are not listed. Non-standard residues stand in square brackets, D forms with d. Residues, ends and D or L forms follow the SMILES beside them. ξ: configuration not given here. *: point of attachment. Bz = O=C(c1ccccc1)*; Bn = c1ccc(C*)cc1; ξC = NC(CS)C(=O)O
# System: CD2F1 mice, L1210 leukemia ip, survival T/C
# Assay: NCI In Vivo Anticancer Drug Screen. Data for tumor model L1210 Leukemia (intraperitoneal) in CD2F1 (CDF1) mice
# Conditions: endpoint: mean survival time, higher = longer survival
# Summary of the method: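 Implant tumor; dose compound or vehicle; measure endpoint in both groups; report treated divided by control.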
# [1] = dose: 100.0 mg/kg/injection, schedule: Q01DX001 (ip), vehicle: saline
# [2] = dose: 100.0 mg/kg/injection, schedule: Q04DX003 (ip), vehicle: saline with Tween-80
# [3] = dose: 200.0 mg/kg/injection, schedule: Q01DX001 (ip), vehicle: saline
# [4] = dose: 200.0 mg/kg/injection, schedule: Q04DX003 (ip), vehicle: saline with Tween-80
# [5] = dose: 400.0 mg/kg/injection, schedule: Q01DX001 (ip), vehicle: saline
# [6] = dose: 400.0 mg/kg/injection, schedule: Q04DX003 (ip), vehicle: saline with Tween-80
# [7] = dose: 100.0 mg/kg/injection, schedule: Q01DX001 (ip), vehicle: saline with Tween-80
# [8] = dose: 200.0 mg/kg/injection, schedule: Q01DX001 (ip), vehicle: saline with Tween-80
# [9] = dose: 400.0 mg/kg/injection, schedule: Q01DX001 (ip), vehicle: saline with Tween-80
# [10] = dose: 100.0 mg/kg/injection, schedule: Q01DX009 (ip), vehicle: saline with Tween-80
# [11] = dose: 200.0 mg/kg/injection, schedule: Q01DX009 (ip), vehicle: saline with Tween-80
# [12] = dose: 400.0 mg/kg/injection, schedule: Q01DX009 (ip), vehicle: saline with Tween-80
structure (smiles),measurement,setting,value
O=C1c2ccccc2C(=O)c2c(Cl)cc(Cl)cc21,T/C,"dose: 75.0 mg/kg/injection, schedule: Q01DX001 (ip), vehicle: saline",103 % of control
same,T/C,"dose: 150.0 mg/kg/injection, schedule: Q01DX001 (ip), vehicle: saline",111 % of control
same,T/C,"dose: 300.0 mg/kg/injection, schedule: Q01DX001 (ip), vehicle: saline",102 % of control
COC(=O)CC(NC(=O)C(F)(F)F)C(=O)OC (stereo unspecified),T/C,[1],108 % of control
same,T/C,"dose: 100.0 mg/kg/injection, schedule: Q01DX009 (ip), vehicle: saline",94 % of control
same,T/C,[2],97 % of control
same,T/C,[3],104 % of control
same,T/C,"dose: 200.0 mg/kg/injection, schedule: Q01DX009 (ip), vehicle: saline",94 % of control
same,T/C,[4],97 % of control
same,T/C,[5],98 % of control
same,T/C,"dose: 400.0 mg/kg/injection, schedule: Q01DX009 (ip), vehicle: saline",100 % of control
same,T/C,[6],103 % of control
CCN(CC)C(=O)CSC#N,T/C,"dose: 12.5 mg/kg/injection, schedule: Q01DX001 (ip), vehicle: Klucel (hydroxypropylcellulose) (HPC)",96 % of control
same,T/C,"dose: 25.0 mg/kg/injection, schedule: Q01DX001 (ip), vehicle: Klucel (hydroxypropylcellulose) (HPC)",100 % of control
CN(C)CCOS(C)(=O)=O,T/C,"dose: 100.0 mg/kg/injection, schedule: Q04DX003 (ip), vehicle: saline",100 % of control
same,T/C,"dose: 200.0 mg/kg/injection, schedule: Q04DX003 (ip), vehicle: saline",98 % of control
same,T/C,"dose: 400.0 mg/kg/injection, schedule: Q04DX003 (ip), vehicle: saline",100 % of control
Cc1ccc(S(=O)(=O)NC2CCC(C(=O)O)CC2)cc1 (stereo unspecified),T/C,"dose: 100.0 mg/kg/injection, schedule: Q01DX009 (ip), vehicle: Klucel (hydroxypropylcellulose) (HPC)",103 % of control
same,T/C,"dose: 200.0 mg/kg/injection, schedule: Q01DX009 (ip), vehicle: Klucel (hydroxypropylcellulose) (HPC)",103 % of control
same,T/C,"dose: 400.0 mg/kg/injection, schedule: Q01DX009 (ip), vehicle: Klucel (hydroxypropylcellulose) (HPC)",92 % of control
BrC1(Br)C2COCOCC21 (stereo unspecified),T/C,[7],94 % of control
same,T/C,[8],94 % of control
same,T/C,[9],94 % of control
CC(=O)c1cccc(N=NN(C)C)c1,T/C,"dose: 46.0 mg/kg/injection, schedule: Q01DX009 (ip), vehicle: Klucel (hydroxypropylcellulose) (HPC)",124 % of control
same,T/C,"dose: 69.0 mg/kg/injection, schedule: Q01DX009 (ip), vehicle: Klucel (hydroxypropylcellulose) (HPC)",154 % of control
same,T/C,"dose: 158.0 mg/kg/injection, schedule: Q01DX009 (ip), vehicle: Klucel (hydroxypropylcellulose) (HPC)",87 % of control and 107 % of control
OCC1OC(n2ncc3c(N/N=C/c4ccc(N(CCCl)CCCl)cc4)ncnc32)C(O)C1O (stereo unspecified),T/C,"dose: 25.0 mg/kg/injection, schedule: Q01DX009 (ip), vehicle: saline with Tween-80",102 % of control
same,T/C,"dose: 50.0 mg/kg/injection, schedule: Q01DX009 (ip), vehicle: saline with Tween-80",93 % of control
same,T/C,[10],102 % of control
same,T/C,[11],89 % of control
same,T/C,[12],93 % of control
CC(=N\O)/C(C)=N/O.CC(=N\O)/C(C)=N/O.CCCC1CC[N-]CC1.CCCC1CC[N-]CC1.CCCC1CC[N-]CC1.CCCC1CC[N-]CC1.[Cl-].[Cl-].[Cl][Rh][Cl].[Rh+3],T/C,"dose: 6.25 mg/kg/injection, schedule: Q01DX009 (ip), vehicle: water",97 % of control
same,T/C,"dose: 6.25 mg/kg/injection, schedule: Q04DX003 (ip), vehicle: water",86 % of control
same,T/C,"dose: 12.5 mg/kg/injection, schedule: Q04DX003 (ip), vehicle: water",94 % of control
same,T/C,"dose: 25.0 mg/kg/injection, schedule: Q01DX009 (ip), vehicle: water",88 % of control
same,T/C,"dose: 25.0 mg/kg/injection, schedule: Q04DX003 (ip), vehicle: water",86 % of control
COC(OC)C1C2C3C=CC(C4C(=O)OC(=O)C34)C12 (stereo unspecified),T/C,[10],98 % of control
same,T/C,[2],97 % of control
same,T/C,[11],93 % of control
same,T/C,[4],110 % of control
same,T/C,[12],95 % of control
same,T/C,[6],103 % of control
C/C(C#N)=C/c1ccccc1,T/C,"dose: 50.0 mg/kg/injection, schedule: Q01DX009 (ip), vehicle: saline sonified",108 % of control
same,T/C,"dose: 100.0 mg/kg/injection, schedule: Q01DX009 (ip), vehicle: saline sonified",105 % of control
same,T/C,[2],100 % of control
same,T/C,"dose: 200.0 mg/kg/injection, schedule: Q01DX009 (ip), vehicle: saline sonified",105 % of control
same,T/C,[4],105 % of control
CCOC12c3c4cccc3Oc3cccc(c31)S(=O)(=O)c1cccc(c12)O4,T/C,[7],89 % of control
same,T/C,[8],89 % of control
O=C1C(c2ccccc2)=C(c2ccccc2)c2c(-c3ccccc3)ccc(-c3ccccc3)c21,T/C,[2],89 % of control
same,T/C,[4],100 % of control
same,T/C,[6],94 % of control
CCOC(=O)c1ccc(N2C(=O)C=CC2=O)cc1,T/C,"dose: 12.5 mg/kg/injection, schedule: Q01DX009 (ip), vehicle: saline",97 % of control
COc1ccccc1N=Nc1c(O)n(-c2ccccc2OC)c(=S)n(-c2ccc(Br)cc2)c1=O,T/C,"dose: 25.0 mg/kg/injection, schedule: Q04DX002 (ip), vehicle: saline with Tween-80",100 % of control
same,T/C,"dose: 50.0 mg/kg/injection, schedule: Q04DX002 (ip), vehicle: saline with Tween-80",100 % of control
same,T/C,"dose: 100.0 mg/kg/injection, schedule: Q04DX002 (ip), vehicle: saline with Tween-80",95 % of control
CCOC(=O)COC(CC[P+](c1ccccc1)(c1ccccc1)c1ccccc1)(C(=O)c1ccccc1)c1ccccc1 (stereo unspecified),T/C,"dose: 5.0 mg/kg/injection, schedule: Q01DX001 (ip), vehicle: saline with Tween-80",100 % of control
same,T/C,"dose: 6.25 mg/kg/injection, schedule: Q01DX001 (ip), vehicle: saline with Tween-80",102 % of control
same,T/C,"dose: 12.5 mg/kg/injection, schedule: Q01DX001 (ip), vehicle: saline with Tween-80",97 % of control
same,T/C,"dose: 20.0 mg/kg/injection, schedule: Q01DX001 (ip), vehicle: saline with Tween-80",109 % of control
same,T/C,"dose: 25.0 mg/kg/injection, schedule: Q01DX001 (ip), vehicle: saline with Tween-80",108 % of control
COC(=O)C(CSCc1ccccc1)NC(=O)CNC(=O)c1ccccc1 (stereo unspecified) (Bz-Gly-[ξC](Bn)-OMe),T/C,[7],98 % of control
same,T/C,[10],91 % of control
same,T/C,[8],93 % of control
same,T/C,[11],94 % of control
same,T/C,[9],97 % of control
same,T/C,[12],91 % of control
CC(=O)c1ccc(O)cc1O,T/C,[1],102 % of control and 98 % of control
same,T/C,[3],102 % of control and 98 % of control
same,T/C,[5],107 % of control and 104 % of control
N#CCN1CCc2ccccc2C1,T/C,"dose: 100.0 mg/kg/injection, schedule: Q04DX003 (ip), vehicle: Klucel (hydroxypropylcellulose) (HPC)",94 % of control
same,T/C,"dose: 200.0 mg/kg/injection, schedule: Q04DX003 (ip), vehicle: Klucel (hydroxypropylcellulose) (HPC)",94 % of control
CCOC(=O)CCCCCSc1nn(C2OC(CO)C(O)C2O)c(=O)[nH]c1=O (stereo unspecified),T/C,"dose: 12.5 mg/kg/injection, schedule: Q01DX005 (ip), vehicle: distilled water + Tween-80",103 % of control
same,T/C,"dose: 25.0 mg/kg/injection, schedule: Q01DX005 (ip), vehicle: distilled water + Tween-80",98 % of control
same,T/C,"dose: 50.0 mg/kg/injection, schedule: Q01DX005 (ip), vehicle: distilled water + Tween-80",104 % of control
same,T/C,"dose: 100.0 mg/kg/injection, schedule: Q01DX005 (ip), vehicle: distilled water + Tween-80",103 % of control
same,T/C,"dose: 200.0 mg/kg/injection, schedule: Q01DX005 (ip), vehicle: distilled water + Tween-80",97 % of control
CN(CCSSCCN(C)/N=C/c1ccccc1)/N=C/c1ccccc1,T/C,[2],97 % of control
same,T/C,[4],101 % of control
same,T/C,[6],101 % of control
Cc1cc(NCCCCCCNc2cc(C)[n+](C)c3c(Cl)cccc23)c2cccc(Cl)c2[n+]1C,T/C,"dose: 12.5 mg/kg/injection, schedule: Q01DX009 (ip), vehicle: Klucel (hydroxypropylcellulose) (HPC)",98 % of control
same,T/C,"dose: 25.0 mg/kg/injection, schedule: Q01DX009 (ip), vehicle: Klucel (hydroxypropylcellulose) (HPC)",98 % of control
same,T/C,"dose: 50.0 mg/kg/injection, schedule: Q01DX009 (ip), vehicle: Klucel (hydroxypropylcellulose) (HPC)",94 % of control
CSc1c(N)nc(N)[nH]c1=O,T/C,"dose: 100.0 mg/kg/injection, schedule: Q01DX001 (ip), vehicle: alkali diluted with water",96 % of control
same,T/C,"dose: 200.0 mg/kg/injection, schedule: Q01DX001 (ip), vehicle: alkali diluted with water",94 % of control
same,T/C,"dose: 400.0 mg/kg/injection, schedule: Q01DX001 (ip), vehicle: alkali diluted with water",96 % of control
